The text below walks through data of US9968603B2, “Systems for sustained intraocular delivery of low solubility compounds from a port delivery system implant” (ForSight Vision4, Inc., priority 2013, dated 2018).

One data set in a line: Aqueous solubility. The class given is physicochemical.
Data set [1] is described as follows: Viscosity and water content of cyclodextrin formulations. The class given is physicochemical. Particulars: 80 mg/mL Pazopanib.
Data set [2] can be described thus: Formulation (solubility) screening with cyclodextrins, concentrations achieved. The class given is physicochemical. Particulars: for SBE-β-CD [CAPTISOL] Formulations (CD Excess), concentration: CD excess: Pazopanib 20 (5x), 50 (2.5x), 80 (2.5x), Sunitinib 2.5x, 4x, Axitinib 6x, Linifanib 8x, Motesanib 2x; for Expected Concentration Achieved: achieved vs expected formulation concentration. Here is the method:
For example, solid therapeutic agents are mixed in an aqueous solution with cyclodextrin, buffering agent, and/or other formulation agents of the current invention. The pH of the resulting mixture is adjusted with a base, for example, NaOH, or an acid, for example, citric acid. The mixture is then filtered, and the resulting filtered solution is used to fill the PDS.
A solubility screening of the therapeutic agent of the invention was carried out during the pre-formulation stage. For example, the solubility of the therapeutic agents in acids, cyclodextrin (CD) (e.g., SBEβCD (CAPTISOL®), HPβCD, HPγCD), hydrophilic stabilizing agents (e.g., PVP), and buffering agents (e.g., citric acid, histidine) were explored. Systematic formulation screening may include determination of CD:therapeutic agent ratio, pH, therapeutic agent concentration, and agents.
For example, in the formulation process with complexing agents such as cyclodextrins, a vial of solid therapeutic agent was mixed with a vial containing a solution of CD, acid, and agents in water. The pH of the resulting mixture was adjusted by NaOH. The mixture was then be filtered, and the resulting filtered solution was used to fill the PDS device or used to determine its stability.

A short description of data set [3]: Formulations with amphiphilic agents and non-aqueous solvents (no complexing agent), concentration dissolved. The class given is physicochemical. Particulars: neat PEG 300.
The nature of data set [4]: Diffusion coefficient from Release Rate Index and single exponential model, compared with Stokes-Einstein prediction. Particulars: 21 mg/mL Sunitinib, 2.5:1 molar ratio HPβCD.
Experimental: The measured diffusion coefficient was compared to the diffusion coefficient predicted (using Stokes-Einstein equation to correct for MW (via volume of diffusing species) and temperature (via temperature dependence of the viscosity of water)) for a molecule of that molecular weight.
The rate was assessed by using the measured Release Rate Index (RRI) and volume for a particular device and using the single exponential diffusion model to determine a measured diffusion coefficient for a particular formulation and device combination. The measured diffusion coefficient was compared to the diffusion coefficient predicted (using Stokes-Einstein equation to correct for MW (via volume of diffusing species) and temperature (via temperature dependence of the viscosity of water)) for a molecule of that molecular weight.

Values after ≈ are worked out from the molar mass of the structure shown. Where a name gives a salt, the structure may show the parent alone. Read-outs that look alike come from different tables or passages of the source. Where only a bound is given, the exact number is not on record here.

As usually defined, the solubility is how much of the substance goes into solution per volume.

Turning to `Cc1ccc(Nc2nccc(N(C)c3ccc4c(C)n(C)nc4c3)n2)cc1S(N)(=O)=O` [Pazopanib, 5-[[4-[(2,3-dimethyl-2H-indazol-6-yl)methylamino]-2-pyrimidinyl]amino]-2-methylbenzenesulfonamide monohydrochloride], the solubility in the data set “Aqueous solubility” (aqueous solution with 0.1% polysorbate-20, aqueous with cosolvent or surfactant or cyclodextrin) is 0.1 µg/mL. Moreover, the “solubility in phosphate buffered saline” value in the data set “Aqueous solubility” (neutral pH) is given as “insoluble”. Further, the viscosity entry in data set [1] (2.2:1 molar ratio CAPTISOL) is “at least 5 centipoise”. In data set [1] (5:1 CAPTISOL), the water content result is listed as “approximately 0.5 g/mL”.

Regarding `Cc1ccc(F)c(NC(=O)Nc2ccc(-c3cccc4[nH]nc(N)c34)cc2)c1` [Linifanib, N-[4-(3-Amino-1H-indazol-4-yl)phenyl]-N′-(2-fluoro-5-methylphenyl)urea], in data set [2], the “SBE-β-CD [CAPTISOL] Formulations (CD Excess), concentration” value is reported as 6 mg/mL and the “Expected Concentration Achieved” value is given as “No”. In addition, the concentration formulated in data set [3] worked out at 20 mg/mL.

For `CCN(CC)CCNC(=O)c1c(C)[nH]c(/C=C2\C(=O)Nc3ccc(F)cc32)c1C.O=C(O)CC(O)C(=O)O` [Sunitinib, Butanedioic acid, hydroxy-, (2S)-, compound with N-[2-(diethylamino)ethyl]-5-[(Z)-(5-fluoro-1,2-dihydro-2-oxo-3H-indol-3-ylidine)methyl]-2,4-dimethyl-1H-pyrrole-3-carboxamide (1:1)], the solubility in “Aqueous solubility” (aqueous solution, pH 4.1, aqueous buffer, read-out: solubility) was greater than 25000 µg/mL. Besides, the solubility in the data set “Aqueous solubility” (aqueous solution, pH 7.4, aqueous buffer, read-out: solubility) is 10 µg/mL. Moreover, in data set [4], the measured diffusion coefficient is 3.3e-7 cm^2/s and the “times lower than the predicted single molecule diffusion coefficient” value is on record as 20 times.

In the case of `CC1(C)CNc2cc(NC(=O)c3cccnc3NCc3ccncc3)ccc21` [Motesanib, N-(2,3-Dihydro-3,3-dimethyl-1H-indol-6-yl)-2-[(4-pyridinylmethyl)amino]-3-pyridinecarboxamide], in data set [2], the “SBE-β-CD [CAPTISOL] Formulations (CD Excess), concentration” value is 30 mg/mL and the “Expected Concentration Achieved” value is “No”.

In the case of `CNC(=O)c1ccccc1Sc1ccc2c(/C=C/c3ccccn3)n[nH]c2c1` [Axitinib, N-Methyl-2-((3-((1E)-2-(pyridin-2-yl)ethenyl)-1H-indazol-6-yl)sulfanyl)benzamide], the solubility in “Aqueous solubility” (PBS, aqueous buffer, read-out: solubility in PBS) stood at 0.3 µg/mL (≈ 0.776 µM).
